# Measurements: PubChem BioAssay (NCI)
#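 How tested: cells in 96-well plates exposed to compound for 48 hours at five concentrations. TGI marks complete inhibition of growth.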
# Experiments:
# Test in all cases: inhibition of tumour cell growth, NCI panel, 48 h
# EKVX NSCLC = system: EKVX NSCLC
# HCT-15 colon = system: HCT-15 colon
# IGROV1 ovarian = system: IGROV1 ovarian
# HOP-62 NSCLC = system: HOP-62 NSCLC
# KM12 colon = system: KM12 colon
# UO-31 renal = system: UO-31 renal
# BT-549 breast = system: BT-549 breast
# COLO 205 colon = system: COLO 205 colon
# HT29 colon = system: HT29 colon
# UACC-62 melanoma = system: UACC-62 melanoma
# NCI-H522 lung = system: NCI-H522 lung
# MALME-3M melanoma = system: MALME-3M melanoma
# TK-10 renal = system: TK-10 renal
# SNB-19 CNS = system: SNB-19 CNS
# SF-539 CNS = system: SF-539 CNS
# NCI-H23 lung = system: NCI-H23 lung
# HCC-2998 colon = system: HCC-2998 colon
# SK-OV-3 ovarian = system: SK-OV-3 ovarian
# ACHN renal = system: ACHN renal
# NCI-H226 lung = system: NCI-H226 lung
# A498 renal = system: A498 renal
# SNB-75 CNS = system: SNB-75 CNS
# DU-145 prostate = system: DU-145 prostate
# OVCAR-4 ovarian = system: OVCAR-4 ovarian
# MCF7 breast = system: MCF7 breast
# NCI/ADR-RES ovarian = system: NCI/ADR-RES ovarian
# OVCAR-5 ovarian = system: OVCAR-5 ovarian
# MDA-MB-231 breast = system: MDA-MB-231 breast
# LOX IMVI melanoma = system: LOX IMVI melanoma
# SF-295 CNS = system: SF-295 CNS
# U251 CNS = system: U251 CNS
# SK-MEL-2 melanoma = system: SK-MEL-2 melanoma
# 786-0 renal = system: 786-0 renal
# M14 melanoma = system: M14 melanoma
# HCT-116 colon = system: HCT-116 colon
# HS 578T breast = system: HS 578T breast
# PC-3 prostate = system: PC-3 prostate
# UACC-257 melanoma = system: UACC-257 melanoma
# T-47D breast = system: T-47D breast
# MDA-MB-435 = system: MDA-MB-435
# MDA-N = system: MDA-N
# SN12C renal = system: SN12C renal
# K-562 leukemia = system: K-562 leukemia
# SK-MEL-5 melanoma = system: SK-MEL-5 melanoma
# CAKI-1 renal = system: CAKI-1 renal
# HL-60(TB) leukemia = system: HL-60(TB) leukemia
# SF-268 CNS = system: SF-268 CNS
# OVCAR-3 ovarian = system: OVCAR-3 ovarian
# SK-MEL-28 melanoma = system: SK-MEL-28 melanoma
# OVCAR-8 ovarian = system: OVCAR-8 ovarian
# SW-620 colon = system: SW-620 colon
# A549 NSCLC = system: A549 NSCLC
# HOP-92 NSCLC = system: HOP-92 NSCLC
smiles,measurement,setting,value
CN(C)CCn1c(=O)c2ccc(NCCNCCO)c3c(=O)c4ccccc4n(c1=O)c23,TGI,EKVX NSCLC,2.41 µM
same,TGI,HCT-15 colon,6.9 µM
same,TGI,IGROV1 ovarian,1.87 µM
same,TGI,HOP-62 NSCLC,0.851 µM
same,TGI,KM12 colon,2.42 µM
same,TGI,UO-31 renal,0.842 µM
same,TGI,BT-549 breast,4.81 µM
same,TGI,COLO 205 colon,0.836 µM
same,TGI,HT29 colon,4.6 µM
same,TGI,UACC-62 melanoma,0.88 µM
same,TGI,NCI-H522 lung,0.34 µM
same,TGI,MALME-3M melanoma,3.41 µM
same,TGI,TK-10 renal,6.95 µM
same,TGI,SNB-19 CNS,3.98 µM
same,TGI,SF-539 CNS,0.593 µM
same,TGI,NCI-H23 lung,0.849 µM
same,TGI,HCC-2998 colon,2.34 µM
same,TGI,SK-OV-3 ovarian,16.2 µM
same,TGI,ACHN renal,15.9 µM
same,TGI,NCI-H226 lung,4.28 µM
same,TGI,A498 renal,0.458 µM
same,TGI,SNB-75 CNS,0.404 µM
same,TGI,DU-145 prostate,0.628 µM
same,TGI,OVCAR-4 ovarian,5.24 µM
same,TGI,MCF7 breast,3.2 µM
same,TGI,NCI/ADR-RES ovarian,16.3 µM
same,TGI,OVCAR-5 ovarian,5.19 µM
same,TGI,MDA-MB-231 breast,0.852 µM
same,TGI,LOX IMVI melanoma,0.78 µM
same,TGI,SF-295 CNS,14.6 µM
same,TGI,U251 CNS,3.07 µM
same,TGI,SK-MEL-2 melanoma,1.85 µM
same,TGI,786-0 renal,4.16 µM
same,TGI,M14 melanoma,1.72 µM
same,TGI,HCT-116 colon,3.4 µM
same,TGI,HS 578T breast,1.37 µM
same,TGI,PC-3 prostate,2.09 µM
same,TGI,UACC-257 melanoma,3.14 µM
same,TGI,T-47D breast,7.61 µM
same,TGI,MDA-MB-435,2.07 µM
same,TGI,MDA-N,1.78 µM
same,TGI,SN12C renal,0.509 µM
same,TGI,K-562 leukemia,1.08 µM
same,TGI,SK-MEL-5 melanoma,0.813 µM
same,TGI,CAKI-1 renal,0.186 µM
same,TGI,HL-60(TB) leukemia,0.0197 µM
same,TGI,SF-268 CNS,0.977 µM
same,TGI,OVCAR-3 ovarian,5.66 µM
same,TGI,SK-MEL-28 melanoma,> 19.7 µM
same,TGI,OVCAR-8 ovarian,5.64 µM
same,TGI,SW-620 colon,> 30.7 µM
same,TGI,A549 NSCLC,3.16 µM
same,TGI,HOP-92 NSCLC,0.604 µM
